Measurements as given in patent US12083109B2, “Neurokinin antagonists and uses thereof” (California Institute of Technology, priority 2017, dated 2024).
“Also recorded” adds a separate entry of the source.

Legend:
[1] = target: T1, hM4DREADD in Tac2+ neurons (Homo sapiens, UniProt P08173, A203G/Y113C); experiment: Looming disk assay, CNO silencing of Tac2+ neurons (hM4DREADD); type: in vivo, mouse; settings: SIS Tac2-Cre mice, CNO 5 mg/kg i.p.
T1 construct: host or cells: Tac2+ neurons of Tac2-Cre mice (dBNSTa, DMH or CeA), transduced in vivo with AAV2-EF1a-DIO-hM4D-mCherry
T1 sequence (P08173 1-479 Y113C/A203G): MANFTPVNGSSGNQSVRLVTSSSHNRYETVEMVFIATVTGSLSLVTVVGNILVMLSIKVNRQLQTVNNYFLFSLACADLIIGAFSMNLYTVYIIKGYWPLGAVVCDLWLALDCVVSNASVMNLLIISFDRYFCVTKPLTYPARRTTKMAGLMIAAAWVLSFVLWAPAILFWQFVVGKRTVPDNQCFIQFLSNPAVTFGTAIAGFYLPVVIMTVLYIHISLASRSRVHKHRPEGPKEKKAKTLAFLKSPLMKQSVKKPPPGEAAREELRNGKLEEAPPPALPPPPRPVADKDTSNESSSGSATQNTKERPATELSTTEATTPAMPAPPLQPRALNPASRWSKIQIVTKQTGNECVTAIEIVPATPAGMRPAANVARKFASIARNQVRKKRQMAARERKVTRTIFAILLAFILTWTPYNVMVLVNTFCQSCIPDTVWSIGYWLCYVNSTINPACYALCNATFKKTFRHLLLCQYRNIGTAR
Experimental: Freezing behavior to presentation of an overhead looming disk proceeded as previously described (Kunwar et al., 2015; Yilmaz and Meister, 2013; incorporated by reference in their entirety). Briefly, mice were transported to a novel behavioral testing room. After 5 minutes of acclimation, mice were placed inside a novel, custom-built open top Plexiglas arena (48×48×30 cm) covered with a flat screen monitor placed directly above and with illumination provided by infrared LEDs (Marubeni). Mice were given a 5 minute baseline period in the arena, after which entry into the center of the arena triggered presentation of a single, 10 second overhead looming disk stimulus (comprised of a single looming disk presentation 0.5 seconds in duration, which was repeated 10 times with an inter-stimulus interval of 0.5 seconds). The stimulus was controlled by custom MATLAB code (M. Meister, Caltech) run on a dedicated computer in an adjacent room. Mice remained in the area for an additional 2 minutes before being transported back. Behavior was recorded using a video recorder attached to a laptop equipped with video capture software (Corel VideoStudio Pro). Acute freezing behavior to the looming disk (“during”) as well as in the 30 seconds following the last disk (“post”) were scored manually (Behavior Annotator, MATLAB) by an observer blind to environmental conditions. […]

Nk3R [2] = target: T2, Nk3R (Mus musculus, UniProt P47937); experiment: Tone fear conditioning test (freezing to conditioned tone), osanetant; type: in vivo; design: from tissue; host or cells: Living mice (wild-type C57Bl6/N males, Charles River); settings: osanetant daily during two-week isolation, tested off-drug
T2 sequence (P47937 1-452): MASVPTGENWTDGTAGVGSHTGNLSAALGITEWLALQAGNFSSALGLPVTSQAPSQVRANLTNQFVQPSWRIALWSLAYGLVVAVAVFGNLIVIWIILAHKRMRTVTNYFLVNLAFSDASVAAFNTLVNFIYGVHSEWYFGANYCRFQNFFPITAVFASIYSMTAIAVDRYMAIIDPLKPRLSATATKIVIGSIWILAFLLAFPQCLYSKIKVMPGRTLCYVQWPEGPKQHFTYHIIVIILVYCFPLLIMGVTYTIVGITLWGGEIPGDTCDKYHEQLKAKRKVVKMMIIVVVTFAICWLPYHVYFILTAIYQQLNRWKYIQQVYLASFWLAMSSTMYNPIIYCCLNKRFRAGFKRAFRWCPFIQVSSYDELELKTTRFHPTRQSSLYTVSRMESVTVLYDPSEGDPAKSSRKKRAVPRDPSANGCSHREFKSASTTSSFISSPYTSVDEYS

Nk3R [3] = target: T2, Nk3R; experiment: Looming disk assay (freezing, tail rattles, latency to orient), osanetant; type: in vivo; design: from tissue; host or cells: Living mice (wild-type C57Bl6/N males, Charles River); settings: for SIS-induced increased tail rattling (looming disk assay) / SIS-induced persistent (post) freezing to looming disk: SIS mice; for SIS-induced increased tail rattling (looming disk assay): acute systemic osanetant; for acute (and thereby persistent) freezing to innate threatening stimulus (looming disk): osanetant injection into CeA
Experimental: Freezing behavior to presentation of an overhead looming disk proceeded as previously described (Kunwar et al., 2015; Yilmaz and Meister, 2013; incorporated by reference in their entirety). Briefly, mice were transported to a novel behavioral testing room. After 5 minutes of acclimation, mice were placed inside a novel, custom-built open top Plexiglas arena (48×48×30 cm) covered with a flat screen monitor placed directly above and with illumination provided by infrared LEDs (Marubeni). Mice were given a 5 minute baseline period in the arena, after which entry into the center of the arena triggered presentation of a single, 10 second overhead looming disk stimulus (comprised of a single looming disk presentation 0.5 seconds in duration, which was repeated 10 times with an inter-stimulus interval of 0.5 seconds). The stimulus was controlled by custom MATLAB code (M. Meister, Caltech) run on a dedicated computer in an adjacent room. Mice remained in the area for an additional 2 minutes before being transported back. Behavior was recorded using a video recorder attached to a laptop equipped with video capture software (Corel VideoStudio Pro). Acute freezing behavior to the looming disk (“during”) as well as in the 30 seconds following the last disk (“post”) were scored manually (Behavior Annotator, MATLAB) by an observer blind to environmental conditions.
Mice were administered the Nk3R antagonist osanetant (Axon Medchem, Axon 1533) either systemically or intra-brain region. Osanctant was dissolved in saline with 0.1% Tween 20 (vehicle). For systemic administration mice received an intraperitoneal (i.p.) injection (5 mg/kg) 20 minutes prior to behavioral testing. For microinfusions, guide cannulas were removed from mice and replaced with injector cannulas (Plastics One), which protruded 0.5 mm from the tip of the guide cannula. Injectors were attached to 5 μl Hamilton syringes with PE tubing (Plastics One) and mounted on a microinfusion pump (Harvard Apparatus) for controlled infusion of osanetant (0.3 μl vehicle with 375 ng dose per site injected over 6 minutes). For experiments using systemic administration of clozapine-N-oxide (CNO), CNO (Enzo Life Sciences-Biomol, BML-NS105-0005) was dissolved in saline (9 g/L NaCl) and injected (i.p.) at 5 mg/kg for hM4DREADD silencing or 2 mg/kg for hM3DREADD activation 20 minutes prior to behavioral testing. CNO was also administered chronically in drinking water (0.5 mg CNO/100 ml water).

Row | persistent freezing to fear conditioned tone (Nk3R [2]) | SIS-induced increased tail rattling (looming disk assay) (Nk3R [3]) | SIS-induced increased tail rattling (looming disk assay) (Nk3R [3]; listed as Osanetant) | SIS-induced persistent (post) freezing to looming disk (Nk3R [3]; osanetant 5 mg/kg i.p. 20 min before test) | SIS-induced persistent (post) freezing to looming disk (Nk3R [3]; osanetant 5 mg/kg i.p. 20 min before test, listed as Osanetant) | freezing during presentation of looming disk (acute) (Nk3R [3]; osanetant 5 mg/kg i.p. 20 min before test, between groups) | persistent freezing to looming disk (Nk3R [3]; osanetant daily during two-week isolation, tested off-drug) | acute (and thereby persistent) freezing to innate threatening stimulus (looming disk) (Nk3R [3]) | acute (and thereby persistent) freezing to innate threatening stimulus (looming disk) (Nk3R [3]; listed as Osanetant) | persistent responses to looming stimulus (Nk3R [3]; osanetant microinfusion into DMH) | SIS-induced persistent freezing to looming disk (Nk3R [3]; osanetant microinfusion into dBNSTa, 375 ng per site, 20 min before test) | SIS-induced persistent freezing to looming disk (Nk3R [3]; osanetant microinfusion into dBNSTa, 375 ng per site, 20 min before test, listed as Osanetant) | Structure (SMILES) | acute (during) freezing to looming disk ([1]; hM4DREADD in CeA) | persistent (post) freezing to looming disk ([1]; hM4DREADD in dBNSTa) | SIS-induced persistent freezing to looming disk (Nk3R [3]; osanetant microinfusion into ACC or striatum)
1 | – | – | – | – | – | – | – | – | – | – | – | – | C[N+]1([O-])CCN(C2=Nc3cc(Cl)ccc3Nc3ccccc32)CC1 [CNO, clozapine-N-oxide] | blocked; also recorded: suppressed | blocked; also recorded: selectively attenuated | –
2 | prevented | attenuated | blocked | blocked | attenuated | no significant differences | prevented | reduced | selectively blocked | had no effect | selectively inhibited | selectively blocked | CC(=O)N(C)C1(c2ccccc2)CCN(CCC[C@]2(c3ccc(Cl)c(Cl)c3)CCCN(C(=O)c3ccccc3)C2)CC1 [osanetant, N-(1-{3-[(3R)-1-benzoyl-3-(3,4-dichlorophenyl)piperidin-3-yl]propyl}-4-phenylpiperidin-4-yl)-N-methylacetamide] | – | – | failed to yield significant effects; also recorded: No significant effects
